Laboratory results from patent US20050215433A1, “Aromatic fluid as agricultural solvent” (priority 2004, published 2005).

Tests used:
Format in all cases: physicochemical
[1] = Solubility of pesticide in the solvent (highest concentration without crystallization); conditions: no crystals after seeding; for Solubility in Weight %: Bromoxynil Octanoate: pesticide Bromoxynil Octanoate dissolved in the solvent; for Solubility in Weight %: Chlorpyrifos: pesticide Chlorpyrifos dissolved in the solvent; for Solubility in Weight %: Pendimethalin: pesticide Pendimethalin dissolved in the solvent; for Solubility in Weight %: Permethrin: pesticide Permethrin dissolved in the solvent; for Solubility in Weight %: Trifluralin: pesticide Trifluralin dissolved in the solvent
Method: Solubility was determined by adding a predetermined weight of pesticide to a vial and then adding the solvent to within 10 grams to make the appropriate concentrations. Several different concentrations were made. […] The vials were capped and inverted several times to completely dissolve the pesticide. If the pesticide was not completely dissolved, the vials were placed in a beaker filled with warm water until the pesticide dissolved. The water was not heated closer than 30° C. of the flash point of the solvent being tested. The vial was removed from the heated beaker and was left to stand for 3 hours at room temperature. The vial was then placed into a chiller, an ethylene glycol bath, if a lower temperature was desired. […] If crystals were present, the solutions in the vials were diluted, the vials were inverted several times, the vials were either heated or cooled, and the vials were checked for crystals. The vials were allowed to stand for 24 hours and were then rechecked for crystals. If crystals were still absent after 24 hours, one crystal of pesticide was added to the vial (seeding) and the vial was inverted several times to assure the crystal was dissolved. The vial was left to stand for 48 hours and rechecked for crystals. If crystals were present, the solution was diluted further and the previous steps were repeated until no crystals appeared after seeding. […] The test was started again at the beginning with higher concentrations of the pesticide in the solvent.

[2] = Kauri Butanol Value, variation of ASTM D-1133-02; conditions: 20 grams kauri-butanol solution titrated with the solvent
Method: Kauri Butanol Value was determined by a variation of ASTM D-1133-02. In a […] Erlenmeyer flask, 20 grams (±0.1 grams) of kauri-butanol solution was added. The flask was placed in a water bath at 20° C. (±1° C.). A 50-milliliter burette was filled with the solvent being tested. The standardized kauri-butanol solution was titrated with the solvent being tested until the end point was reached. A photocopy of the residence listings from a telephone book was used as the 10 point print sample placed directly beneath the water bath. The tester looked through the liquid at the print to observe the end point. […] The volume in milliliters of solvent added to the flask to produce turbidity was recorded. The kauri-butanol values were calculated using the following formula: Kauri-Butanol value=[65(C−B)/(A−B)]+40 (1) where A is the milliliters of toluene required to titrate 20 grams of kauri-butanol solution (the A factor should be on the certificate of analysis that accompanies the standardized kauri-butanol solution); • B is the milliliters of n-heptane-toluene blend required to titrate 20 grams of kauri butanol solution (the B factor should be on the certificate of analysis that accompanies the standardized kauri-butanol solution); and • C is the milliliters of solvent being tested that are required to titrate 20 grams of kauri-butanol solution. […]

[3] = Mixed Aniline Point, variation of ASTM D-611-82; conditions: 10 milliliters aniline + 5 milliliters sample + 5 milliliters n-heptane
Method: For the Mixed Aniline Point, 10 milliliters of aniline was added to a test tube. The test tube was fitted with a suitable stirrer and thermometer. The thermometer was centered in the test tube and some padding was kept at the base of the stand to avoid breakage of the test tube if it slipped. […] Added to the test tube containing aniline was 5 milliliters of sample and 5 milliliters of n-heptane. The test tube was placed into a cooling bath of isopropyl alcohol and dry ice. The mixture was continuously stirred rapidly using 2 inch strokes, avoiding introduction of air bubbles. The mixture was allowed to cool below the first appearance of turbidity and the Mixed Aniline Point was recorded.

Molecule | Solubility in Weight %: Bromoxynil Octanoate [1] [Weight %] | Solubility in Weight %: Chlorpyrifos [1] [Weight %] | Solubility in Weight %: Pendimethalin [1] [Weight %] | Solubility in Weight %: Permethrin [1] [Weight %] | Solubility in Weight %: Trifluralin [1] [Weight %] | Kauri-Butanol Value [2] | Mixed Aniline Point [3] [°C]
Cc1cc(C)cc(C(C)(C)C)c1 [Example 5, 5-ter-Butyl-m-Xylene] | 61 | 65 | 35 | 65 | 50 | 66 | 28
CN1CCCC1=O [Example 10, 1-Methyl-2-Pyrrilidinone] | 75 | 80 | 55 | 75 | 70 | – | –
CCCCCCCCCCCCc1ccccc1 [Example 17, Dodecyl Benzene] | 40 | 50 | 20 | 45 | 25 | 36 | 43
Dipentylindan [Example 12] | 25 | 40 | <15 | 50 | <15 | – | –
Monopentylindan [Example 11] | 50 | 60 | 25 | 65 | 35 | – | –
